# Reference: PubChem BioAssay AID256 (DTP/NCI, 2004)
# Several values for one entry are separate records, joined by “and”; a condition that tells them apart may be missing. Equal values may be shown once. Toxic doses and inconclusive results are not listed.
# System: CD2F1 mice, L1210 leukemia ip, survival T/C
# Assay: NCI In Vivo Anticancer Drug Screen. Data for tumor model L1210 Leukemia (intraperitoneal) in CD2F1 (CDF1) mice
# Settings: higher = longer survival
# Summary of the method: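 Read-out first: treated-group measurement over vehicle-control measurement, expressed as a ratio. Animals bore a transplanted tumor line and were dosed with compound or vehicle.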
# [1] = endpoint: mean survival time, dose: 100.0 mg/kg/injection, schedule: Q01DX001 (ip), vehicle: saline
# [2] = endpoint: mean survival time, dose: 200.0 mg/kg/injection, schedule: Q01DX001 (ip), vehicle: saline
# [3] = endpoint: mean survival time, dose: 400.0 mg/kg/injection, schedule: Q01DX001 (ip), vehicle: saline
# [4] = endpoint: mean survival time, dose: 100.0 mg/kg/injection, schedule: Q04DX003 (ip), vehicle: saline with Tween-80
# [5] = endpoint: mean survival time, dose: 200.0 mg/kg/injection, schedule: Q04DX003 (ip), vehicle: saline with Tween-80
# [6] = endpoint: mean survival time, dose: 25.0 mg/kg/injection, schedule: Q04DX003 (ip), vehicle: saline
# [7] = endpoint: mean survival time, dose: 50.0 mg/kg/injection, schedule: Q04DX003 (ip), vehicle: saline
# [8] = endpoint: mean survival time, dose: 100.0 mg/kg/injection, schedule: Q04DX003 (ip), vehicle: saline
# [9] = endpoint: mean survival time, dose: 100.0 mg/kg/injection, schedule: Q01DX009 (ip), vehicle: saline with Tween-80
# [10] = endpoint: mean survival time, dose: 200.0 mg/kg/injection, schedule: Q01DX009 (ip), vehicle: saline with Tween-80
# [11] = endpoint: mean survival time, dose: 400.0 mg/kg/injection, schedule: Q01DX009 (ip), vehicle: saline with Tween-80
# [12] = endpoint: mean survival time, dose: 400.0 mg/kg/injection, schedule: Q04DX003 (ip), vehicle: saline with Tween-80
smiles,measurement,setting,value
CCNCC(=O)O[C@]1(CC)C(=O)OCc2c1cc1n(c2=O)Cc2cc3ccccc3nc2-1,T/C,"endpoint: median survival time, dose: 7.5 mg/kg/injection, schedule: Q04DX002 (ip), vehicle: saline",122 % of control and 110 % of control
same,T/C,"endpoint: median survival time, dose: 7.5 mg/kg/injection, schedule: Q04HX004 (iv), vehicle: dextrose",164 % of control
same,T/C,"endpoint: median survival time, dose: 7.5 mg/kg/injection, schedule: Q04HX004 (iv), vehicle: other",179 % of control
same,T/C,"endpoint: median survival time, dose: 15.0 mg/kg/injection, schedule: Q04DX002 (ip), vehicle: saline",117 % of control
same,T/C,"endpoint: median survival time, dose: 15.0 mg/kg/injection, schedule: Q04HX004 (iv), vehicle: dextrose",198 % of control
same,T/C,"endpoint: median survival time, dose: 15.0 mg/kg/injection, schedule: Q04HX004 (iv), vehicle: other",195 % of control
same,T/C,"endpoint: median survival time, dose: 30.0 mg/kg/injection, schedule: Q04DX002 (ip), vehicle: saline",170 % of control and 172 % of control
same,T/C,"endpoint: median survival time, dose: 30.0 mg/kg/injection, schedule: Q04HX004 (iv), vehicle: dextrose",208 % of control
same,T/C,"endpoint: median survival time, dose: 30.0 mg/kg/injection, schedule: Q04HX004 (iv), vehicle: other",223 % of control
same,T/C,"endpoint: median survival time, dose: 40.0 mg/kg/injection, schedule: Q04HX004 (iv), vehicle: other",235 % of control
O=C1OC2CC3CCC2C13 (stereo not drawn),T/C,"endpoint: mean survival time, dose: 6.25 mg/kg/injection, schedule: Q01DX009 (ip), vehicle: saline",101 % of control
same,T/C,"endpoint: mean survival time, dose: 12.5 mg/kg/injection, schedule: Q01DX009 (ip), vehicle: saline",101 % of control
same,T/C,"endpoint: mean survival time, dose: 25.0 mg/kg/injection, schedule: Q01DX009 (ip), vehicle: saline",95 % of control
C[N+](C)(C)C.[Cl-].[Cl-].[Cl][Sn]([Cl])[Cl].[Cl][Sn]([Cl])[Cl].[Ru+],T/C,"endpoint: mean survival time, dose: 25.0 mg/kg/injection, schedule: Q04DX002 (ip), vehicle: saline with Tween-80",107 % of control
same,T/C,"endpoint: mean survival time, dose: 50.0 mg/kg/injection, schedule: Q04DX002 (ip), vehicle: saline with Tween-80",96 % of control
ON(C(=Nc1ccccc1)c1ccccc1Cl)c1ccccc1,T/C,"endpoint: mean survival time, dose: 6.25 mg/kg/injection, schedule: Q01DX009 (ip), vehicle: saline with Tween-80",106 % of control
same,T/C,"endpoint: mean survival time, dose: 6.25 mg/kg/injection, schedule: Q04DX003 (ip), vehicle: saline with Tween-80",102 % of control
same,T/C,"endpoint: mean survival time, dose: 12.5 mg/kg/injection, schedule: Q01DX009 (ip), vehicle: saline with Tween-80",101 % of control
same,T/C,"endpoint: mean survival time, dose: 12.5 mg/kg/injection, schedule: Q04DX003 (ip), vehicle: saline with Tween-80",104 % of control
same,T/C,"endpoint: mean survival time, dose: 25.0 mg/kg/injection, schedule: Q04DX003 (ip), vehicle: saline with Tween-80",102 % of control
same,T/C,[1],102 % of control
same,T/C,[2],102 % of control
O=C(CBr)c1cc(-c2ccccc2)nc2c(Cl)cc(Cl)cc12,T/C,[1],100 % of control
same,T/C,[2],103 % of control
same,T/C,[3],97 % of control
C=C1C(=O)C2=CC1CCC(=O)C1(C)CCC(OC(C)=O)C(C)(C)C1CC2O (stereo not drawn),T/C,"endpoint: mean survival time, dose: 3.75 mg/kg/injection, schedule: Q01DX009 (ip), vehicle: Klucel (hydroxypropylcellulose) (HPC)",97 % of control
same,T/C,"endpoint: mean survival time, dose: 7.5 mg/kg/injection, schedule: Q01DX009 (ip), vehicle: Klucel (hydroxypropylcellulose) (HPC)",98 % of control and 100 % of control
same,T/C,"endpoint: mean survival time, dose: 15.0 mg/kg/injection, schedule: Q01DX009 (ip), vehicle: Klucel (hydroxypropylcellulose) (HPC)",95 % of control and 98 % of control
same,T/C,"endpoint: mean survival time, dose: 30.0 mg/kg/injection, schedule: Q01DX009 (ip), vehicle: Klucel (hydroxypropylcellulose) (HPC)",98 % of control and 101 % of control
same,T/C,"endpoint: mean survival time, dose: 60.0 mg/kg/injection, schedule: Q01DX009 (ip), vehicle: Klucel (hydroxypropylcellulose) (HPC)",95 % of control and 96 % of control
same,T/C,"endpoint: mean survival time, dose: 120.0 mg/kg/injection, schedule: Q01DX009 (ip), vehicle: Klucel (hydroxypropylcellulose) (HPC)",89 % of control
CC(=O)OC1C(OC(C)=O)C(OC(C)=O)C(OS(C)(=O)=O)C(OC(=O)c2ccccc2)C1OC(C)=O (stereo not drawn),T/C,"endpoint: mean survival time, dose: 100.0 mg/kg/injection, schedule: Q01DX009 (ip), vehicle: Klucel (hydroxypropylcellulose) (HPC)",96 % of control
same,T/C,"endpoint: mean survival time, dose: 200.0 mg/kg/injection, schedule: Q01DX009 (ip), vehicle: Klucel (hydroxypropylcellulose) (HPC)",86 % of control
same,T/C,"endpoint: mean survival time, dose: 400.0 mg/kg/injection, schedule: Q01DX009 (ip), vehicle: Klucel (hydroxypropylcellulose) (HPC)",91 % of control
CCCC(C)OC(=O)c1ccc([N+](=O)[O-])cc1 (stereo not drawn),T/C,[1],100 % of control
same,T/C,[2],110 % of control
same,T/C,[3],93 % of control
CCCCCCCCCCCCCC(=O)N(C)C,T/C,"endpoint: mean survival time, dose: 50.0 mg/kg/injection, schedule: Q01DX009 (ip), vehicle: saline",92 % of control
same,T/C,"endpoint: mean survival time, dose: 100.0 mg/kg/injection, schedule: Q01DX009 (ip), vehicle: saline",98 % of control
same,T/C,[4],95 % of control
same,T/C,"endpoint: mean survival time, dose: 200.0 mg/kg/injection, schedule: Q01DX009 (ip), vehicle: saline",95 % of control
same,T/C,[5],103 % of control
CCN(CC)CCN1C(=O)c2cccc3cccc(c23)C1=O,T/C,[6],102 % of control
same,T/C,[7],98 % of control
same,T/C,[8],102 % of control
N#Cc1ccc2cn[nH]c2c1,T/C,[9],98 % of control
same,T/C,[10],96 % of control
same,T/C,[11],92 % of control
CC1COS(=O)O1 (stereo not drawn),T/C,"endpoint: mean survival time, dose: 10.0 mg/kg/injection, schedule: Q01DX009 (ip), vehicle: saline with Tween-80",96 % of control
same,T/C,"endpoint: mean survival time, dose: 10.0 mg/kg/injection, schedule: Q04DX003 (ip), vehicle: saline",103 % of control
same,T/C,"endpoint: mean survival time, dose: 20.0 mg/kg/injection, schedule: Q01DX009 (ip), vehicle: saline with Tween-80",101 % of control
same,T/C,"endpoint: mean survival time, dose: 20.0 mg/kg/injection, schedule: Q04DX003 (ip), vehicle: saline",97 % of control
same,T/C,"endpoint: mean survival time, dose: 40.0 mg/kg/injection, schedule: Q01DX009 (ip), vehicle: saline with Tween-80",109 % of control
same,T/C,"endpoint: mean survival time, dose: 40.0 mg/kg/injection, schedule: Q04DX003 (ip), vehicle: saline",101 % of control
COc1ccc2c(c1O)-c1cc(O)cc3c1C(C2)N(CCCl)CC3 (stereo not drawn),T/C,"endpoint: mean survival time, dose: 3.13 mg/kg/injection, schedule: Q04DX003 (ip), vehicle: water",104 % of control
same,T/C,"endpoint: mean survival time, dose: 6.25 mg/kg/injection, schedule: Q04DX003 (ip), vehicle: water",102 % of control
same,T/C,"endpoint: mean survival time, dose: 12.5 mg/kg/injection, schedule: Q04DX003 (ip), vehicle: water",105 % of control
same,T/C,"endpoint: mean survival time, dose: 25.0 mg/kg/injection, schedule: Q04DX003 (ip), vehicle: DMSO",102 % of control
same,T/C,"endpoint: mean survival time, dose: 25.0 mg/kg/injection, schedule: Q04DX003 (ip), vehicle: water",100 % of control
same,T/C,"endpoint: mean survival time, dose: 50.0 mg/kg/injection, schedule: Q04DX003 (ip), vehicle: water",88 % of control
[Cl][Sb]([c]1ccccc1)([c]1ccccc1)([c]1ccccc1)[c]1ccccc1,T/C,"endpoint: mean survival time, dose: 4.7 mg/kg/injection, schedule: Q04DX003 (ip), vehicle: saline",98 % of control
same,T/C,"endpoint: mean survival time, dose: 9.4 mg/kg/injection, schedule: Q04DX003 (ip), vehicle: saline",102 % of control
O=C1Cc2cccc(=O)c(O)c2C(=O)O1,T/C,[6],96 % of control
same,T/C,[7],104 % of control
same,T/C,[8],94 % of control
CNC(=O)c1ccccc1C(c1ccccc1)C1(O)CCCCC1 (stereo not drawn),T/C,[4],101 % of control
same,T/C,[5],88 % of control
same,T/C,[12],93 % of control
Nc1nc(N)c(N=Nc2ccc(S(=O)(=O)O)cc2)c(N)n1,T/C,[9],94 % of control
same,T/C,[10],94 % of control
same,T/C,[11],98 % of control
O=C(Nc1nccs1)c1ccc([N+](=O)[O-])cc1,T/C,"endpoint: mean survival time, dose: 100.0 mg/kg/injection, schedule: Q01DX001 (ip), vehicle: saline with Tween-80",95 % of control
same,T/C,"endpoint: mean survival time, dose: 200.0 mg/kg/injection, schedule: Q01DX001 (ip), vehicle: saline with Tween-80",88 % of control
same,T/C,"endpoint: mean survival time, dose: 400.0 mg/kg/injection, schedule: Q01DX001 (ip), vehicle: saline with Tween-80",100 % of control
C#CCOCC1CO1 (stereo not drawn),T/C,"endpoint: mean survival time, dose: 75.0 mg/kg/injection, schedule: Q01DX001 (ip), vehicle: saline",95 % of control
same,T/C,"endpoint: mean survival time, dose: 150.0 mg/kg/injection, schedule: Q01DX001 (ip), vehicle: saline",87 % of control
O=C1OCC/C1=C1\CCCO1,T/C,[4],106 % of control
same,T/C,[5],101 % of control
same,T/C,[12],95 % of control
CCCCOC(=O)CCCC(=O)OCCCC,T/C,[9],108 % of control
same,T/C,[4],95 % of control
same,T/C,[10],104 % of control
same,T/C,[5],93 % of control
same,T/C,[11],103 % of control
same,T/C,[12],95 % of control
S=C(S)NCCc1ccccn1,T/C,[9],102 % of control
same,T/C,[10],94 % of control
same,T/C,[11],103 % of control
